Experiments:
[1] = system: MYSEC (murine yolk sac endothelial cell) cell lines; assay: In vitro permeability of LPS-treated MYSEC cells (transwell, streptavidin-HRP); format: cell-based
Protocol: Permeability was measured by an in vitro method using cell culture and in vivo method using Evans blue dye. To increase permeability, LPS was used in the in vitro method and CLP treatment was used in the in vivo method.
To measure permeability by an in vitro method, MYSEC (murine yolk sac endothelial cell) cell lines were used. MYSEC cell lines were placed in the top chamber of a trans well at 2.5×10^5 cells/well and treated with 300 ng of lipopolysaccharide (LPS) derived from Gram-negative bacteria in the presence of the compound of formula (1a-1) for 24 hours. The medium in the top chamber was replaced with 300 µl of serum-free medium containing 5 µl of streptoavidin-HRP. After 5 minutes, 20 µl of the medium in the lower chamber was taken and the activity of HRP was measured as absorbance at 450 nm.
To determine the mechanism by which the compound of formula (1a-1) improves permeability, the same experiment was performed by knocking down the SIRT1 protein in the MYSEC cell line.

SIRT1 [2] = assay: SIRT1 expression in mouse vascular cells; format: cell-based
[3] = system: APP/PS/Tau transgenic mice; assay: Intestinal length in AD-induced animal model; format: in vivo; details: 1 mg/kg intraperitoneally once every 3 days for 2 weeks
Protocol: In neurodegenerative diseases (AD and PD), the length of the intestine tends to decrease as the disease progresses, so we looked for changes in intestinal length in an AD-induced animal model.
APP/PS/Tau transgenic mice were used as an AD-induced animal model. The compound of formula (1a-1) was administered intraperitoneally once every 3 days at a concentration of 1 mg/kg to 12-week-old transgenic mice for 2 weeks, and the changes in intestinal length of the mice were measured after 1 and 4 weeks.

SIRT1 [4] = assay: SIRT1 expression in HUVECs by western blot; format: cell-based, human; details: 24 hours
Protocol: To determine the increase in SIRT1 expression by the compound of formula (1a-1) prepared in Example 1 above in human umbilical vein endothelial cells (HUVECs), HUVECs were seeded at 5 × 10^5/4 ml in a 60 mm cell culture dish using ECBM2 medium (Promocell) and stabilized for 12 hours in an incubator maintained at 37°C and 5% CO2, respectively.
The cells were then treated with 10 nM, 100 nM and 1000 nM of the compound of formula (1a-1) prepared in Example 1 above, respectively, and incubated for another 24 hours, and then SIRT1 expression was determined by western blot.

Tau protein = assay: Tau expression in mouse brain of AD-induced animal model, fluorescence microscopy; format: in vivo, mice; details: 1 mg/kg intraperitoneally once every 3 days for 2 weeks; brain sections at 1 week and 4 weeks after drug administration
Protocol: To determine the therapeutic effect on Alzheimer's Disease (AD), the effects on amyloid beta monomer (monomeric Aβ, mAβ) and Tau protein, which are biomarkers of AD, were analyzed in an AD-induced animal model.
APP/PS/Tau transgenic mice were used as an AD-induced animal model. The compound of formula (1a-1) was administered intraperitoneally once every 3 days at a concentration of 1 mg/kg to 12-week-old transgenic mice for 2 weeks, and the expression of mAβ and Tau proteins in the mouse brain was measured after 1 and 4 weeks. After anesthetizing the mouse, the cervical region was incised with a dissecting tool, and then the occipital region was incised to remove both sides of the skull. The brain was washed with phosphate buffered saline (PBS) and fixed with 4% paraformaldehyde (Sigma, St Louis, MO, USA) for 12 hours at 4°C. These were cut to a thickness of approximately 10 µm using a vibratome, and hippocampus and cortex sections were collected and placed in 24 wells. PBS was added to the wells containing the fixed tissue sections, and fluorescent nanoparticles (QD565, red fluorescence) conjugated with anti-amyloid antibodies and anti-Tau antibodies (Santa Cruz, USA) were added to each 2 µM, and reacted at 4°C for 12 hours. The expression of mAβ and Tau was confirmed by fluorescence microscopy.

α-synuclein = α-synuclein expression in rotenone-treated differentiated SH-SY5Y dopaminergic neurons, western blot; format: cell-based, human; details: differentiated dopaminergic neurons treated with rotenone
Protocol: To analyze the effect on the expression of tyrosine hydroxylase (TH) and α-synuclein as neuron-specific proteins, western blot was performed.
SH-SY5Y cell line was treated with retinoic acid and 12-O-tetradecanoylphorbol-13-acetate (TPA) to induce differentiation into TH-secreting neurons for 6 days.
Differentiated dopaminergic neurons were lysed in PRO-PREP (Intronbio), a cell lysis solution containing protease inhibitor cocktail (Gendepot), and electrophoresed in 10% SDS polyacrylamide gels at 20 µg/well. Transfer was performed using PVDF (Merck millipore) as a membrane, and tyrosine hydroxylase antibody, α-synuclein antibody (Cell signaling), and β-actin antibody (Santa Cruz) were used for reaction for more than 2 hours. Protein expression was detected by staining with ECL substrate (Biorad) for development and graphed using the image J program.

SH-SY5Y cell lines = assay: Proliferation of SH-SY5Y cells (Parkinson's disease cell model), EZ-cytox; format: cell-based, human; details: 5 days
Protocol: A medium containing DMEM/F12 (Hyclone), 10% FBS (Hyclone), and 1% penicillin-streptomycin (Hyclone) was used, and the medium was replaced every two days after seeding on a T75 plate. Subculture was performed when the cell density was 80-90%.
Then, to determine the neuronal proliferation effect, the subcultured SH-SY5Y cells were seeded in 96 wells at 5 × 10^3 cells/well. After 1 day, the medium was replaced with a 5% FBS ratio, and the cells were treated with the compound of formula (1a-1) at concentrations serially diluted 2-fold from 500 nM to 15.6 nM and cultured for 5 days. The medium was replaced with 10% FBS containing the drug every other day. The culture medium with 10% FBS was used as a control. After 5 days, the amount of living cells was measured at 450 nm absorbance using EZ-cytox (DoGen) to compare the cell viability.

SMILES: CCCCCCCCCCCCCC[C@H]1OP(=O)(O)O[C@H]1[C@@H](N)CO.Cl [formula (1a-1), (4S,5R)-4-((S)-1-amino-2-hydroxyethyl)-2-hydroxy-5-tetradecyl-1,3,2-dioxaphosphoran-2-oxide hydrochloride]
- effect on LPS-induced permeability after knockdown of the SIRT1 protein ([1]; MYSEC cell line with SIRT1 knockdown, LPS): does not show the effect
- LPS-induced increased permeability ([1]; MYSEC cell line, 300 ng LPS, 24 hours): restores the LPS-induced increased permeability to normal
- concentration of maximum expression (SIRT1) (SIRT1 [2]): 100 ng/mL
- length of the intestine at 4 weeks (6W) compared to 1 week (3W) after administration [3]: longer
- intestinal length ([3]; compared to untreated AD-induced control mice): increased
- expression of SIRT1 (SIRT1 [4]; 10 nM): increases
- EC50 (SIRT1 [4]; read-out: concentration (EC50) that increased the expression of SIRT1 by 50%): ~10 nM
- red fluorescence for Tau (Tau protein): negligible
- expression of α-synuclein increased by rotenone (α-synuclein): decreased
- proliferation of nerve cells (SH-SY5Y cell lines; 15.6 nM to 500 nM): increases with increasing concentrations
- concentration of maximum proliferative potency (SH-SY5Y cell lines): ~100 nM

Reference: patent EP4624482A1, “PYRIMIDOPYRIMIDINONE COMPOUND AND PHARMACEUTICAL COMPOSITION COMPRISING SAME” (Axceso Biopharma Co., Ltd., priority 2022, dated 2024)
